Source: ChEMBL document CHEMBL1152563, “Identification of new agonists of urotensin-II from a cyclic peptide library” (Bioorg Med Chem, 2009)
pEC50: −log10 of the molar value. Peptide text beside a SMILES is read from it.

How the values were obtained:
[1] = biological target: T1, Urotensin-2 receptor (Homo sapiens) (UniProt Q9UKP6); experiment: Agonist activity at human GPR14 expressed in HEK293 cells by calcium mobilization assay relative to urotensin 2; format: functional, cell-based
T1 sequence (whole entry): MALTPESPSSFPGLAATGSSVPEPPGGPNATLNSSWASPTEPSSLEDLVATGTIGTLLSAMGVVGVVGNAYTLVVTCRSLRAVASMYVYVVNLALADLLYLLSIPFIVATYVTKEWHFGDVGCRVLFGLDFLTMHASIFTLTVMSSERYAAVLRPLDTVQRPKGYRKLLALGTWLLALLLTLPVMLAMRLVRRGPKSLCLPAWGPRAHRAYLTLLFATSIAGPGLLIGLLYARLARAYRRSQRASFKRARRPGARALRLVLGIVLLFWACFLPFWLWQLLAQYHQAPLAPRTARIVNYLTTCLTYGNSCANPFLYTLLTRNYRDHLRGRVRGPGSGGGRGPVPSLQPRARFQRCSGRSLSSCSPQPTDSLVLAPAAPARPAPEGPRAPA

[2] = biological target: T2, Urotensin-2 receptor (Homo sapiens, UniProt Q9UKP6); experiment: Agonist activity at human GPR14 expressed in HEK293 cells by calcium mobilization assay; format: functional, cell-based
T2 sequence (Q9UKP6 whole entry): T1 sequence (whole entry)

Emax [1] [%]	pEC50 [2]	Compound
98	8.16	NCCCC[C@@H]1NC(=O)[C@H](Cc2c[nH]c3ccccc23)NC(=O)[C@H](Cc2ccccc2)NC(=O)CNC(=O)[C@@H]2CCCN2C(=O)[C@H](Cc2ccc(O)cc2)NC1=O (cyclo(FWKYPG))
92	7.69	NCCCC[C@@H]1NC(=O)[C@H](Cc2c[nH]c3ccccc23)NC(=O)[C@H](Cc2ccccc2)NC(=O)CNC(=O)[C@@H]2CCCN2C(=O)[C@H](Cc2c[nH]c3ccccc23)NC1=O (cyclo(FWKWPG))
86	7.90	NCCCC[C@@H]1NC(=O)[C@H](Cc2c[nH]c3ccccc23)NC(=O)[C@H](Cc2ccc(O)cc2)NC(=O)CNC(=O)[C@@H]2CCCN2C(=O)[C@H](Cc2ccc(O)cc2)NC1=O (cyclo(GYWKYP))
108	8.07	NCCCC[C@@H]1NC(=O)[C@H](Cc2c[nH]c3ccccc23)NC(=O)[C@H](CO)NC(=O)CNC(=O)[C@@H]2CCCN2C(=O)[C@H](Cc2ccc(O)cc2)NC1=O (cyclo(GSWKYP))
101	7.88	NCCCC[C@@H]1NC(=O)[C@H](Cc2c[nH]c3ccccc23)NC(=O)[C@H](Cc2ccccc2)NC(=O)CNC(=O)[C@@H]2CCCN2C(=O)[C@H](Cc2ccccc2)NC1=O (cyclo(FPGFWK))
102	7.12	NCCCC[C@@H]1NC(=O)[C@H](Cc2c[nH]c3ccccc23)NC(=O)[C@H](Cc2ccc(O)cc2)NC(=O)CNC(=O)[C@@H]2CCCN2C(=O)[C@H](Cc2ccccc2)NC1=O (cyclo(FPGYWK))
96	8.00	NCCCC[C@@H]1NC(=O)[C@H](Cc2c[nH]c3ccccc23)NC(=O)[C@H](CO)NC(=O)CNC(=O)[C@@H]2CCCN2C(=O)[C@H](Cc2ccccc2)NC1=O (cyclo(FPGSWK))
100	7.78	NCCCC[C@@H]1NC(=O)[C@H](Cc2c[nH]c3ccccc23)NC(=O)[C@H](CO)NC(=O)CNC(=O)[C@@H]2CCCN2C(=O)[C@H](Cc2c[nH]c3ccccc23)NC1=O (cyclo(GSWKWP))
